Where two headings read alike, the source gives them in different places.
How the values were obtained:
PARP1 = molecular target: T1, PARP1 (Homo sapiens, UniProt P09874); assay: PARP1 enzyme assay (histone-coated plate, chemiluminescence); format: biochemical; conditions: PARP1 0.02 nM, DNA 0.8 nM, NAD+ 3.5 µM; read-out: PARP-1 IC50
T1 construct: purchased BPS 80501

[1] = tested on: BRCA wild-type DLD-1 cells; assay: Anti-proliferative activity against cells (CCK8): DLD-1; format: cell-based; conditions: Homo sapiens, 72 h + 96 h culture
Outline: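 DLD-1 cells (1000/well) in RPMI-1640 with 10% FBS, treated 24 h after plating with PARPi at 0, 1 or 10 µM final. Cultured 72 h, medium exchanged with re-added PARPi, then a further 96 h; read-out by CCK8.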

[2] = Cerebrospinal fluid and plasma distribution in vivo; conditions: rat, male rats, intravenous 5 mg/kg, n = 1
Method: Experimental procedures: The compound was weighed out, a small amount of DMSO was added, and then a sodium chloride solution for injection was added to prepare a 5 mg·mL^-1 compound solution for later administration. […] 10 µL of the plasma and 10 µL of the cerebrospinal fluid were each added to a centrifuge tube, and 40 µL of acetonitrile containing 20 ng·mL^-1 internal standard SAHA was added for precipitation. […] The supernatant was collected and transferred to a sample vial for later analysis. Range of standard curve: 1-1000 ng·mL^-1.

[3] = tested on: BRCA-mutated MDA-MB-436 cells; assay: Anti-proliferative activity against cells (CCK8): MDA-MB-436; format: cell-based; conditions: Homo sapiens, 72 h + 96 h culture
[4] = cerebrospinal fluid, read-out: Cerebrospinal fluid

T1 sequence (P09874 whole entry): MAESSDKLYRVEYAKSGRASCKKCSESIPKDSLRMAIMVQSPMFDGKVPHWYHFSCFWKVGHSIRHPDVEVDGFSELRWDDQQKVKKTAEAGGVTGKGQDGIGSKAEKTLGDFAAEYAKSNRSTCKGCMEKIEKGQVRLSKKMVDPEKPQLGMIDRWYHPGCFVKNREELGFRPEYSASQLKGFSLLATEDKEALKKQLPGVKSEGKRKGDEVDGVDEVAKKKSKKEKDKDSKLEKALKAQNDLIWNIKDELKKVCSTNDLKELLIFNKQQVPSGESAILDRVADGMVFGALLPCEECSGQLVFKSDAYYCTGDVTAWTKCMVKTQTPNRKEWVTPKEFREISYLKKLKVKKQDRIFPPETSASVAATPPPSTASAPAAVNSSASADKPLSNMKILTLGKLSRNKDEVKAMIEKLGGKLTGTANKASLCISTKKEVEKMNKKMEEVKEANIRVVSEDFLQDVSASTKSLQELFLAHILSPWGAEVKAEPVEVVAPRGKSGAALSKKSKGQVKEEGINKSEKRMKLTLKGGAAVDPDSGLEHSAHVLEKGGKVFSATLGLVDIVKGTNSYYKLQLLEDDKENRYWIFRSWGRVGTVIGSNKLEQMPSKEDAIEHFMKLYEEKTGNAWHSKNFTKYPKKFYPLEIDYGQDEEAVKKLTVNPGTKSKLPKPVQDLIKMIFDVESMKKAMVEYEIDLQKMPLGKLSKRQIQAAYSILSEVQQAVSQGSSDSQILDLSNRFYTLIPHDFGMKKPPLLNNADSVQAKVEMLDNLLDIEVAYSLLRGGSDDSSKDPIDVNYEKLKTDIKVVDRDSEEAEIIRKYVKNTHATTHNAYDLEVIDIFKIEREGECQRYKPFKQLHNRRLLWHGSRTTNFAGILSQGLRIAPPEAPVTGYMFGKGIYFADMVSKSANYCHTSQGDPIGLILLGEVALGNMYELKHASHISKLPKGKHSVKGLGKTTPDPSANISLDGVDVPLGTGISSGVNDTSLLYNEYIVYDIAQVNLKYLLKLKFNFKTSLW

IC50 [3] [nM]	SMILES	IC50 (PARP1) [nM]	IC50 [1] [nM]	concentration at 0.25 h [2, 4] [ng/g]	concentration at 2 h [2, 4] [ng/g]	concentration at 0.25 h ([2]; plasma, read-out: Plasma) [ng/mL]	concentration at 2 h ([2]; plasma, read-out: Plasma) [ng/mL]
–	CNC(=O)c1ccc(N2CCN(CC3Cc4[nH]c(=O)c(C)cc4CO3)CC2)c(F)n1 (stereo not drawn) [Example 39, 6-Fluoro-N-methyl-5-(4-((3-methyl-2-oxo-1,5,7,8-tetrahydro-2H-pyrano[4,3-b]pyridin-7-yl)methyl)piperazin-1-yl)picolinamide]	50 to 500	> 1000	103	26	8200	4890
4	CNC(=O)c1ccc(N2CCN(C[C@H]3CCc4nc(C)c(=O)[nH]c4C3)CC2)c(C)n1 [Example 47, (S)-N,6-Dimethyl-5-(4-((2-methyl-3-oxo-3,4,5,6,7,8-hexahydroquinoxalin-6-yl)methyl)piperazin-1-yl)picolinamide]	≤ 50	> 1000	64	13	1010	43
–	CNC(=O)c1ccc(N2CCN(CC3Cc4[nH]c(=O)c(Cl)cc4CO3)CC2)c(F)n1 (stereo not drawn) [Example 64, 5-(4-((3-Chloro-2-oxo-1,5,7,8-tetrahydro-2H-pyrano[4,3-b]pyridin-7-yl)methyl)piperazin-1-yl)-6-fluoro-N-methylpicolinamide]	50 to 500	> 1000	102	0	1620	503
–	[2H]C([2H])([2H])NC(=O)c1ccc(N2CCN(C[C@H]3CCc4nc(C)c(=O)[nH]c4C3)CC2)c(F)n1 [Example 82, (S)-6-Fluoro-N-(methyl-d3)-5-(4-((2-methyl-3-oxo-3,4,5,6,7,8-hexahydroquinoxalin-6-yl)methyl)piperazin-1-yl)picolinamide]	–	> 1000	119	0	2740	77
–	CNC(=O)c1ccc(N2CCN(CC3COc4cc(C)c(=O)[nH]c4C3)CC2)c(F)n1 (stereo not drawn) [Example 101, 6-Fluoro-N-methyl-5-(4-((7-methyl-6-oxo-3,4,5,6-tetrahydro-2H-pyrano[3,2-b]pyridin-3-yl)methyl)piperazin-1-yl)picolinamide]	≤ 50	> 1000	52	8	2820	592

From EP4768487A1, “FUSED LACTAM RING COMPOUND AND USE THEREOF” (Chengdu Zenitar Biomedical Technology Co., Ltd., priority 2023, dated 2025)
